According to patent US7566722B2, “Triazolopyrimidine derivatives as ADP P2Y12 receptor antagonists” (Janssen Pharmaceutica, N.V., priority 2006, dated 2009):

What was measured:
ADP P2Y12 receptor = molecular target: T1, ADP P2Y12 receptor (Homo sapiens, UniProt Q9H244); assay: FLIPR calcium assay transducing Gi-coupled signaling to the Gq pathway (inhibition of ADP-induced calcium mobilization); format: cell-based; conditions: HEK 293 cells co-transfected with P2Y12 and Gqi5, ADP at EC60-70 dose
T1 construct: expressed in transfected cells
T1 sequence (Q9H244 whole entry): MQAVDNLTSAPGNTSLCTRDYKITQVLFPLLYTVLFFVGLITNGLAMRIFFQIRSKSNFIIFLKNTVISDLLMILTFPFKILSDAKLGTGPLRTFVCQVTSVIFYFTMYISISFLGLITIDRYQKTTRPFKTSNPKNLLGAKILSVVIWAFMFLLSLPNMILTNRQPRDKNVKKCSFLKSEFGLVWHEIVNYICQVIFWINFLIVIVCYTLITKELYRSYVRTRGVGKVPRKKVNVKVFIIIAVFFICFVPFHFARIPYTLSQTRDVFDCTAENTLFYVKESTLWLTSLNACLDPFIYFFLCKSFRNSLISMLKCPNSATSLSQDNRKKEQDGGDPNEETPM
Text: A FLIPR Calcium Assay Transducing Gi-Coupled Signaling to the Gq Pathway
The ADP P2Y12 subtype is a Gi coupled GPCR, which mediates inhibition of adenylate cyclase leading to decreased cAMP while Gq proteins primarily activate phospholipase C, which stimulates inositol-1,4,5-triphosphate (IP3) formation and a subsequent increase in intracellular Ca^2+ concentration, which can be easily measured by FLIPR. Prior to the development of a method to convert a Gi coupled GPCR signaling to a Gq coupled GPCR signaling, a significant barrier existed for the functional testing and screening of Gi coupled GPCRs. One popular method, GTPγS migration, is slow, produces a small signal and generates radioactive waste. The discovery that a small switch in the amino acid sequence in the Gi protein could convert it to a protein mediating a Gq coupled response has led to the development of robust, high throughput assays for this valuable receptor subtype.
The FLIPR-based HTS assay transducing the Gi signaling to the Gq pathway is described below.
pcDNA3hygroP2Y12 containing a hygromycin resistance gene and pLEC1-Gqi5-HA containing a neomycin resistance gene (licensed from Molecular Devices, Sunnyvale, Calif.) were co-transfected into Human embryonic kidney (HEK) 293 cells with SuperFect (Qiagen, Valencia, Calif.). Cell clones were selected in the presence of 600 μg/ml hygromycin B (Life Technologies, Carlsbad, Calif.) and 1 mg/ml of G418 (Mediatech, Herndon, Va.). Drug resistant colonies were picked and screened by FLIPR and the gene expression was further confirmed by RT-PCR. Positive clones were maintained in growth medium (DMEM supplemented with 10% FBS, 1× p/s) containing 400 μg/ml of G418 and 200 μg/ml of hygromycin.
The day before the assay, cells are seeded in clear, flat-bottom black-wall, tissue culture treated polystyrene 96- or 384-well plates and incubated at 37° C., 5% CO2. 50 μl of complete dye loading solution (FLIPR Calcium Assay Kit, Molecular Devices) was added to each well containing 100 μl of culture media. The cells were incubated for at least 30 min at 37° C., in 5% CO2 before initiating the assay on the FLIPR. The agonist effect of ADP was tested and EC50 was determined prior to compound testing. The EC60-70 dose was used.
The antagonist compounds were prepared at 4× and the agonists were diluted at 5× the concentration desired in the test wells, and then aliquoted into the sample plates. The sample plates and the cell plate were placed in the FLIPR assay chamber. A first addition (50 μl) was made at the start of reading and a second addition (50 μl) was made after 5 min of reading. Raw fluorescence data was exported for each well and tabulated versus time within an ASCII file. Data was then imported into Excel and the peak response over the basal level was determined. The percent inhibition for each compound was calculated by the change in fluorescent density as a % inhibition of the control ADP response to obtain an IC50, as shown in Table 1 (wherein N/A means Not Applicable).

P2Y12 receptor = molecular target: T2, P2Y12 receptor (Homo sapiens, UniProt Q9H244); assay: Whole cell receptor binding assay, 2-MeS[3H]-ADP; conditions: HEK 293 cells stably transfected with P2Y12; 2-MeS[3H]-ADP 3 nM; 30 min at 37° C.; read-out: Inhibition of Receptor Binding (IC50 μM)
T2 construct: expressed in transfected cells
T2 sequence (Q9H244 whole entry): as above
Description: A whole cell-binding assay for 2-MeS [^3H]-ADP (Custom synthesized by Amersham BioScience, Piscataway, N.J.) to the P2Y12 receptor was performed.
A P2Y12 cDNA containing hygromycin resistant gene was transfected in HEK 293 cells. A stable cell line was obtained by a cloning selection method. The cells were cultured in DMEM supplemented with 10% FBS and 1× of p/s.
On the day of the assay, the cells were harvested and resuspended in 0.25% BSA-DMEM and adjusted to a cell concentration of 1.6×10^6/ml. 15 μl of each compound was mixed with 120 μl of cell suspension in 96 well assay plates and incubated for 5 min prior to the addition of the radio-labeled ligand 2-MeS[^3H]-ADP (3 nM final in 0.25% BSA-DMEM) or unlabeled […] (for non-specific binding). The reaction was then incubated for 30 min at 37° C. and stopped by adding cold DMEM. The labeled and unlabeled cells were separated by a filtration method using a Packard Filtermate 196 on to the unfilter-96 GF/B plate. The plates were dyed in a 37° C. oven for 1-2 hours and 50 μl of MicroScint-20 (PerkinElmer) was added to each well. The radioactivity was measured using a TOPCOUNT beta counter (Packard). The percent inhibition for each compound was calculated by the change in radioactivity as a % inhibition of the control to obtain an IC50, as shown in Table 2.

platelets = assay: In vitro platelet aggregation (ADP-induced, washed platelets); format: cell-based; conditions: Homo sapiens, washed platelets from healthy volunteers, agonist giving 60-70% aggregation, % inhibition of control ADP response
Description: Platelet aggregation studies were performed according to a published method (Bednar, B., Condra, C., Gould, R. J., and Connolly, T. M., Throm. Res., 77:453-463 (1995). Platelet-rich plasma (PRP) concentrates prepared from healthy volunteers who were aspirin free for at least 7 days by venipuncture using ACD-A as anticoagulant was purchased from Biological Specialties, Inc. (Colmar, Pa.). PRP was centrifuged at 730 g for 15 min. The platelet pellet was washed twice in CGS buffer (13 mM sodium citrate, 30 mM glucose, 120 mM NaCl, pH 6.5) containing 1 μ/ml apyrase (grade V, Sigma-Aldrich, St. Louis, Mo.), 1 mM EGTA, and resuspended in Tyrode's buffer (140 mM NaCl, 2.7 mM KCl, 12 mM NaHCO3, 0.76 mM Na2HPO4, 5.5 mM dextrose, 5.0 mM Hepes, 0.2% BSA, pH 7.4). The platelets were diluted to 3×10^8 platelets/ml and kept >45 min at 37° C. before use. 105 μl of washed platelets, 2 mM CaCl2 and […] of fibrinogen were added to a 96-well microliter plate.
Platelet aggregation was initiated by the addition of serial concentrations of ADP (BioData Corp. Horsham, Pa.). Buffer was added to one set of control wells. The assay plate was stirred constantly and intermittently placed in a microplate reader (Softmax, Molecular Devices, Menlo Park, Calif.) to read optical density (650 nm) at 0 and 5 minutes after the addition of the compound solutions. Aggregation was calculated as the decrease in optical density between the time 0- and 5-min measurements and expressed as % of aggregation. For the inhibition assay, platelet aggregation was conducted as described above except for compound additions. Test compounds were prepared in 100% DMSO and stored.
On the day of the assay, test compounds were diluted in the buffer containing 3% of DMSO as a 10× working solution. 15 μl of compound solutions were added to 105 μl of platelets 5 min prior to the addition of CaCl2 and fibrinogen.

IC50 (ADP P2Y12 receptor)	IC50 (P2Y12 receptor)	Compound	IC50 (platelets)
> 30 µM	9.59 µM	CCCSc1nc(NC[C@H](C)c2ccccc2)c2nnn([C@@H]3C[C@H](c4nnc(C)[nH]4)[C@@H](O)[C@H]3O)c2n1 [Cpd 17, (1S,2R,3R,5R)-3-(5-methyl-4H-[1,2,4]triazol-3-yl)-5-{7-[(2R)-2-phenylpropylamino]-5-propylsulfanyl-[1,2,3]triazolo[4,5-d]pyrimidin-3-yl}-cyclopentane-1,2-diol]	> 30 µM
> 30 µM	4.61 µM	CCCCNc1nc(SCCC)nc2c1nnn2[C@@H]1C[C@H](C2=NCCN2)[C@@H](O)[C@H]1O [Cpd 11, (1R,2S,3R,5R)-3-(7-butylamino-5-propylsulfanyl-[1,2,3]triazolo[4,5-d]pyrimidin-3-yl)-5-(4,5-dihydro-1H-imidazol-2-yl)-cyclopentane-1,2-diol]	> 30 µM
